Source: patent US9868720B2 (Genentech, Inc., priority 2013, dated 2018)

Biological target: DLK kinase (N-terminally GST-tagged DLK, catalytic domain amino acid 1-520) (Homo sapiens (Human), UniProt Q12852)
Assay: DLK TR-FRET assay
Type: biochemical
Conditions: 30 μM ATP, MKK4 K131M substrate, read-out: DLK HTRF (Ki)
Protocol: DLK TR-FRET assay: DLK kinase reactions (20 μL) containing 5 nM N-terminally GST-tagged DLK (catalytic domain amino acid 1-520) (Carna Bioscience), 40 nM N-terminally HIS-tagged MKK4 K131M substrate, and 30 μM ATP in kinase reaction buffer (50 mM HEPES, pH 7.5, 0.01% Triton X-100, 0.01% Bovine γ-Globulins, 2 mM DTT, 10 mM MgCl2 and 1 mM EGTA), and testing compound 1:3 serial diluted starting at 20 uM were incubated at ambient temperature for 60 minutes in 384 well OptiPlate (Perkin Elmer). To quench kinase reactions and detect phosphorylated MKK4, 15 μL of TR-FRET antibody mixture containing 2 nM anti-phosphorylated MKK4 labeled with Europium cryptate (Cisbio) and 23 nM anti-HIS labeled with D2 (Cisbio) in detection buffer (25 mM Tris pH 7.5, 100 mM NaCl, 100 mM EDTA, 0.01% Tween-20, and 200 mM KF) was added to the reaction mixture. The detection mixture was incubated for 3 hours at ambient temperature and the TR-FRET was detected with an EnVision multilabel plate reader (Perkin-Elmer) using the LANCE/DELFIA Dual Enh label from Perkin-Elmer (excitation filter: UV2 (TRF) 320 and emission filters: APC 665 and Europium 615).

Sequence of DLK kinase (N-terminally GST-tagged DLK, catalytic domain amino acid 1-520) (Q12852 1-520): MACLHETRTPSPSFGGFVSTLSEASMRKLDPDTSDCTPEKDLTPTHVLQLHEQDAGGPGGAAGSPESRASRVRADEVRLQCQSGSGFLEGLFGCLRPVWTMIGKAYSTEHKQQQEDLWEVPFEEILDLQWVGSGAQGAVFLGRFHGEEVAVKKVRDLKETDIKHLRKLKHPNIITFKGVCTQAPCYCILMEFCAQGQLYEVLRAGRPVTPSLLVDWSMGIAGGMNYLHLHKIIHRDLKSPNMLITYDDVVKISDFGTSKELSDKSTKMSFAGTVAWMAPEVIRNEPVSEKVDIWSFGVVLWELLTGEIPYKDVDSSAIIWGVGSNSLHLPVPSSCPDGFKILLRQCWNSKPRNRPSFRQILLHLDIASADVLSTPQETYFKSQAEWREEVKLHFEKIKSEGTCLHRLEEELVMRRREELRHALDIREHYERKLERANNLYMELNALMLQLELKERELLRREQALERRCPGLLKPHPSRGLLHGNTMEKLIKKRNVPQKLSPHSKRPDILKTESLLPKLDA

Compound	Ki [nM]
CCOc1ccnc(Nc2cc(C3CCCN(C(=O)c4ccccc4)C3)nc(C)n2)c1 (stereo not drawn) [Example 21, {3-[6-(4-Ethoxy-pyridin-2-ylamino)-2-methyl-pyrimidin-4-yl]-piperidin-1-yl}-phenyl-methanone]	60.7
Cc1ccnc(Nc2cc(C3CCCN(Cc4cn5ccccc5n4)C3)nc(C)n2)c1 (stereo not drawn) [Example 51, [6-(1-Imidazo[1,2-a]pyridin-2-ylmethyl-piperidin-3-yl)-2-methyl-pyrimidin-4-yl]-(4-methyl-pyridin-2-yl)-amine]	166
Cc1nc(Nc2cc(C(F)(F)F)ccn2)cc(C2CCCN(C(=O)c3ccc(F)cc3Cl)C2)n1 (stereo not drawn)	52.1
FC1(F)CCN(c2nc(Nc3cc(C(F)(F)F)ccn3)cc(C3CCN(Cc4cn[nH]c4)C3)n2)C1 (stereo not drawn) [Example 404, {2-(3,3-Difluoro-pyrrolidin-1-yl)-6-[1-(1H-pyrazol-4-ylmethyl)-pyrrolidin-3-yl]-pyrimidin-4-yl}-(4-trifluoromethyl-pyridin-2-yl)-amine]	4.92
O=C(C1CCCO1)N1CCC(c2cc(Nc3cc(C(F)(F)F)ccn3)nc(N3CC(F)(F)C3)n2)C1 (stereo not drawn) [Example 265, {3-[2-(3,3-Difluoro-azetidin-1-yl)-6-(4-trifluoro-methyl-pyridin-2-ylamino)-pyrimidin-4-yl]-pyrrolidin-1-yl}-(tetrahydro-furan-2-yl)-methanone]	159
CN1CCC(c2cc(Nc3cc(C(F)(F)F)ccn3)nc(N3CC(C#N)C3)n2)C1 (stereo not drawn) [Example 328, 1-[4-(1-Methyl-pyrrolidin-3-yl)-6-(4-trifluoromethyl-pyridin-2-ylamino)-pyrimidin-2-yl]-azetidine-3-carbonitrile]	147
Cc1ccnc(Nc2cc(C3CCCN(Cc4ccccn4)C3)nc(C)n2)c1 (stereo not drawn) [Example 56, (4-Methyl-pyridin-2-yl)-[2-methyl-6-(1-pyridin-2-ylmethyl-piperidin-3-yl)-pyrimidin-4-yl]-amine]	293
O=C(C1CN(c2nc(Nc3cc(C(F)(F)F)ccn3)cc(C3CCOCC3)n2)C1)N1CCOCC1 [Example 260, Morpholin-4-yl-{1-[4-(tetrahydro-pyran-4-yl)-6-(4-trifluoromethyl-pyridin-2-ylamino)-pyrimidin-2-yl]-azetidin-3-yl}-methanone]	347
Cc1ccc(Nc2cc(C3CCCN(C(=O)c4ccccc4)C3)nc(C)n2)nc1 (stereo not drawn) [Example 5]	401
Cc1nc(Nc2ccc(C(F)(F)F)cn2)cc(C2CCCN(C(=O)c3ccccc3)C2)n1 (stereo not drawn)	691
Cc1ccnc(Nc2cc(C3CCCN(Cc4cc(C)nn4C)C3)nc(C)n2)c1 (stereo not drawn) [Example 40, {6-[1-(2,5-Dimethyl-2H-pyrazol-3-ylmethyl)-piperidin-3-yl]-2-methyl-pyrimidin-4-yl}-(4-methyl-pyridin-2-yl)-amine]	392
CC(=O)N1CCC(c2cc(Nc3cc(C(F)(F)F)ccn3)nc(-c3cnn(C)c3)n2)CC1 [Example 424, 1-{4-[2-(1-Methyl-1H-pyrazol-4-yl)-6-(4-trifluoromethyl-pyridin-2-ylamino)-pyrimidin-4-yl]-piperidin-1-yl}-ethanone]	12.4
COc1cc(C)ccc1C(=O)N1CCCC(c2cc(Nc3cc(C)ccn3)nc(N3CCC(F)(F)C3)n2)C1 (stereo not drawn) [Example 426, {3-[2-(3,3-Difluoro-pyrrolidin-1-yl)-6-(4-methyl-pyridin-2-ylamino)-pyrimidin-4-yl]-piperidin-1-yl}-(2-methoxy-4-methyl-phenyl)-methanone]	0.5
CN(CCO)c1nc(Nc2cc(C(F)(F)F)ccn2)cc(C2CCNC2)n1 (stereo not drawn) [Example 47, 2-{Methyl-[4-pyrrolidin-3-yl-6-(4-trifluoromethyl-pyridin-2-ylamino)-pyrimidin-2-yl]-amino}-ethanol]	12.6

Next, values leading:

Ki [nM]	Compound
104	CC(=O)N1CCC(c2cc(Nc3cc(C)ccn3)nc(N3CCCCC3)n2)C1 (stereo not drawn) [Example 90, 1-{3-[6-(4-Methyl-pyridin-2-ylamino)-2-piperidin-1-yl-pyrimidin-4-yl]-pyrrolidin-1-yl}-ethanone]
26	FC(F)(F)c1ccnc(Nc2cc(C3CCCN(C4COC4)C3)nc(C3CCC3)n2)c1 (stereo not drawn) [Example 407, [2-Cyclobutyl-6-(1-oxetan-3-yl-piperidin-3-yl)-pyrimidin-4-yl]-(4-trifluoro-methyl-pyridin-2-yl)-amine]
70.1	CN1CCCC(c2cc(Nc3cc(C(F)(F)F)ccn3)nc(N3CC4CCC(C3)O4)n2)C1 (stereo not drawn) [Example 329, [6-(1-Methyl-piperidin-3-yl)-2-(8-oxa-3-aza-bicyclo[3.2.1]oct-3-yl)-pyrimidin-4-yl]-(4-trifluoro-methyl-pyridin-2-yl)-amine]
4.8	FC(F)(F)c1ccnc(Nc2cc(C3CCNC3)nc(N3CCCC3)n2)c1 (stereo not drawn) [Example 66, (2-Pyrrolidin-1-yl-6-pyr-rolidin-3-yl-pyrimidin-4-yl)-(4-trifluoromethyl-pyridin-2-yl)-amine]
31.8	C[C@@H]1CCCN1c1nc(Nc2cc(C(F)(F)F)ccn2)cc(C2CCN(S(C)(=O)=O)CC2)n1 [Example 330, [6-(1-Methanesulfonyl-piperidin-4-yl)-2-((R)-2-methyl-pyrrolidin-1-yl)-pyrimidin-4-yl]-(4-trifluoromethyl-pyridin-2-yl)-amine]
8.34	CC(C)(C)c1ccnc(Nc2cc(C3CCNCC3)nc(N3CCC(F)(F)C3)n2)c1 [Example 200, (4-tert-Butyl-pyridin-2-yl)-[2-(3,3-difluoro-pyrrolidin-1-yl)-6-piperidin-4-yl-pyrimidin-4-yl]-amine]
8.55	FC1(F)CCN(c2nc(Nc3cc(Cl)ccn3)cc(C3CCNCC3)n2)C1 [Example 120, (4-Chloro-pyridin-2-yl)-[2-(3,3-difluoro-pyrrolidin-1-yl)-6-piperidin-4-yl-pyrimidin-4-yl]-amine]
46.3	CN1CCC(c2cc(Nc3cc(C(F)(F)F)ccn3)nc(N3CC4CC3CO4)n2)C1 (stereo not drawn) [Example 274, [6-(1-Methyl-pyrrolidin-3-yl)-2-(2-oxa-5-aza-bicyclo[2.2.1]hept-5-yl)-pyrimidin-4-yl]-(4-trifluoromethyl-pyridin-2-yl)-amine]
0.4	C[C@@H]1CCCN1c1nc(Nc2cc(C(F)(F)F)ccn2)cc(C2CCN(C)CC2)n1 [Example 169, [6-(1-Methyl-piperidin-4-yl)-2-((R)-2-methyl-pyrrolidin-1-yl)-pyrimidin-4-yl]-(4-trifluoromethyl-pyridin-2-yl)-amine]
36.8	CS(=O)(=O)N1CCCC(c2cc(Nc3cc(C(F)(F)F)ccn3)nc(C3CCCC3)n2)C1 (stereo not drawn) [Example 385, [2-Cyclopentyl-6-(1-methanesulfonyl-piperidin-3-yl)-pyrimidin-4-yl]-(4-trifluoromethyl-pyridin-2-yl)-amine]
2.2	CC(=O)N1CCC(c2cc(Nc3cc(C(F)(F)F)ccn3)nc(N3CCC[C@H]3C)n2)CC1 [Example 175, 1-{4-[2-((R)-2-Methyl-pyrrolidin-1-yl)-6-(4-trifluoromethyl-pyridin-2-ylamino)-pyrimidin-4-yl]-piperidin-1-yl}-ethanone]
46.2	CC1CC1C(=O)N1CCC(c2cc(Nc3cc(C(F)(F)F)ccn3)nc(N3CCC(F)(F)C3)n2)C1 (stereo not drawn) [Example 180]
0.95	C[C@@H]1CCCN1c1nc(Nc2cc(C3CC3)ccn2)cc(C2CCNCC2)n1 [Example 202, (4-Cyclopropyl-pyridin-2-yl)-[2-((R)-2-methyl-pyrrolidin-1-yl)-6-piperidin-4-yl-pyrimidin-4-yl]-amine]
